In ChEMBL document CHEMBL1135041, “Synthesis and first biological evaluation of 1-aza-9-oxafluorenes as novel lead structures for the development of small-sized cytostatics” (2002):

Assays:
Type in all cases: functional
Details in all cases: Homo sapiens
[1] = system: NCI/ADR-RES; assay: Growth inhibition against NCI/ADR-RES (breast cancer) cell line using SRB protein cytotoxicity assay
[2] = system: IGROV-1; assay: Growth inhibition against IGROVI (ovarian cancer) cell line using SRB protein cytotoxicity assay
[3] = system: SNB-75; assay: Growth inhibition against SNB-75 (CNS cancer) cell line using SRB protein cytotoxicity assay
[4] = system: SF-268; assay: Growth inhibition against SF-268 cancer cell line using SRB protein cytotoxicity assay
[5] = system: KM12; assay: Growth inhibition against KM12 (colon cancer) cancer cell line using SRB protein cytotoxicity assay

Compound | GI50 [1] [µM] | GI50 [2] [µM] | GI50 [3] [µM] | GI50 [4] [µM] | GI50 [5] [µM]
CCOC(=O)c1cnc2oc3ccc(O)cc3c2c1-c1ccccc1 | 4.7 | 2.5 | 16.5 | 29.7 | 5.1
CC(=O)c1cnc2oc3ccc(O)cc3c2c1-c1ccccc1 | 19.6 | 5 | 2.6 | 27.7 | 40.8
CCOC(=O)c1cnc2oc3ccc(O)cc3c2c1C | 41 | 86 | 26 | 69.9 | 70.3
CC(=O)c1cnc2oc3ccc(O)cc3c2c1C |  |  |  | > 100 | 
